Test results taken from patent US11957671B2, “Benzodioxane modulators of leukotriene A4 hydrolase (LTA4H) for prevention and treatment of aging-associated diseases” (Alkahest, Inc., priority 2021, dated 2024).

What was measured:
aged C57BL/6 mice = assay: Long term potentiation (LTP) in hippocampal slices; format: in vivo, mouse; settings: 1 month bid po, 1 mg/kg Compound 1 or 2.5 mg/kg SC57461A
Procedure: Aged C57BL/6 mice (21 months of age) were treated for 1 month bid po with vehicle, 1 mg/kg Compound 1, or 2.5 mg/kg SC57461A (n=5 mice per treatment group). Electrophysical recordings were performed at AfaSci, Inc, as follows. Animals were deeply anesthetized with halothane and decapitated. The brain was quickly taken out and placed into ice-cold artificial cerebrospinal fluid (ACSF) that was continuously bubbled with 5% CO2/95% O2. The ACSF was composed of (in mM) NaCl 130.0, KCl 2.5, KH2PO4 1.2, CaCl2 2.4, MgSO4 1.3, NaHCO326.0 and glucose 10.0 (pH 7.4). Hippocampal slices (400 μm thick) were prepared using a tissue slicer (Stoelting Co., IL) and incubated at room temperature in continuously oxygenated ACSF for at least 1 h before being recorded with submerged mode in chamber (Harvard Apparatus) at room temperature. Data were collected with an Axopatch-2B amplifier and pClamp 10.4 program (Axon Instruments) through digidata 1320A.
Field population spike (PS) was recorded using glass microelectrode filled with ACSF (resistance: 1-3 MO). Biphasic current pulses (0.2 ms duration for one phase, 0.4 ms in total) were delivered in 10 s intervals through a concentric bipolar stimulating electrode (FHC, Inc.). […] To record field population spikes in dorsal dentate gyrus, the stimulating electrode was placed on the hippocampal fissure to stimulate the bypassing perforant pathway fibers and the recording electrode was placed on inner part of granular cell layer. To record field EPSPs in DG, the stimulating electrode was placed on the hippocampal fissure to stimulate the bypassing perforant pathway fibers and the recording electrode was placed on inner part of granular cell layer. Slices were recorded within 8 hours after dissection. Titanic stimulation consisted of 2 trains of 100 pulses (0.4 ms bipolar pulse duration, 100 Hz) lasting for 1 second with 5 seconds of interval. The slope of EPSP and amplitude of population spike were measured from the initial phase of negative wave with Clampfit10.4. Each data point was measured with average of 3 consecutive traces. LTP was plotted as the percentage to baseline following high frequency stimulation (mean±SEM).

[1] = tested on: synthesis of LTB4 in human whole blood; assay: human whole blood (HWB) assay, LTB4 production inhibition; format: cell-based; settings: calcimycin 20 μM
Procedure: The compounds of the invention are additionally tested in a human whole blood (HWB) assay to determine their ability to inhibit the synthesis of LTB4 in a cellular system. Compounds are combined with heparinized human whole blood and incubated for 15 minutes at 37° C. Calcimycin (20 μM final, prepared in phosphate-buffered saline, pH 7.4) is then added and the mixture is incubated for another 30 minutes at 37° C. The samples are centrifuged for 5 min at low speed (1500×g) and the plasma layer is removed. Plasma LTB4 concentrations are then measured using an antibody-based homogenous time-resolved fluorescence method (CisBio, Bedford, Mass.). In general, the preferred potency range (IC50) of compounds in the HWB assay is between 10 nM to 10 μM, the more preferred potency range is 10 nM to 1 μM, and the most preferred potency range is 10 nM to 100 nM.

aged mice = assay: LPS model of blood-brain-barrier (BBB) leakiness; format: in vivo, mouse
Procedure: FIGS. 63-66 report the results of an in vivo model of blood-brain-barrier (BBB) leakiness. Aged mice were treated for 4 weeks with vehicle or Compound 1 followed by an acute high dose of LPS was used to induce BBB breakdown. Sodium fluorescein was injected by tail vein and leakiness of sodium fluorescein into the brain was measured using a fluorescent plate reader. FIG. 63 reports that LPS induced BBB breakdown in young and aged mice. […] (n=69, 57)). FIG. 65 reports the GFAP intensity across a 60 micron (μm) long line drawn across the large descending vessels of the CA1 hippocampus after 4 weeks of dosing with vehicle or Compound 1 followed by a high dose LPS to induced BBB breakdown. (Mixed effects analysis with repeated measures. (n=69, 57)). FIG. 66 reports the results of in vivo target engagement assays with Compound 1 in mouse plasma. Whole blood from mice dosed with Compound 1 for 4 weeks followed by high dose LPS was incubated with a calcium ionophore to stimulate LTB4 release. Plasma was generated and LTB4 levels were measured using ELISA. LTB4 is the product of LTA4H hydrolysis so this assay reports on LTA4H enzymatic activity. […] (Kruskal-Wallis test with Dunn's multiple comparisons with post-hoc Mann-Whitney test. ****p<0.0001 (n=8, 9, 8, 9)).

Compound: O=C(O)C1CCN(Cc2ccc([C@H]3COc4ccccc4O3)cc2)CC1 [Example 1, 1-{4-[(2S)-2,3-dihydro-1,4-benzodioxin-2-yl]benzyl}piperidine-4-carboxylic acid]
- LTP, CA1 region of the hippocampus (aged C57BL/6 mice): increase in LTP
- LTP, DG region of the hippocampus (aged C57BL/6 mice): increase in LTP
- IC50 [1]: 179 nM
- LTB4 levels in calcimycin stimulated plasma (aged mice; 4 weeks of dosing followed by LPS): trending reduction
- AQP4 intensity across large descending vessels of CA1 hippocampus (aged mice; 4 weeks of dosing then high dose LPS): trending reduction in AQP4 intensity
- LTB4 levels in calcimycin stimulated plasma (aged mice; 4 weeks of dosing, without LPS): significant reduction in LTB4 levels
- BBB leakiness (sodium fluorescein in brain) (aged mice; aged mice, 4 weeks treatment then acute high dose LPS): trend towards reduced BBB leakiness
